Results from ChEMBL document CHEMBL1146835, “Aspermytin A: a new neurotrophic polyketide isolated from a marine-derived fungus of the genus Aspergillus” (2004).

Test system: PC-12
Test: Neurotrophic effect on rat pheochromocytoma (PC-12) cells was expressed as percent cells with neurites after 2 days treatment with 50 uM of compound
Type: functional

## C[C@H]1CCC2[C@@H](C=C[C@@](C)(O)[C@]2(C)C(=O)CCO)C1 (stereo partly specified)
  Cells: >50%
